Experimental data taken from patent US20200093130A1, “APPLICATION OF TETRAHYDROBENZAZOLE IN PREPARATION OF AGRICULTURAL FUNGICIDE OR FUNGICIDE COMPOSITION AND PREPARATION METHOD THEREOF” (JIANGSU FREY AGROCHEMICALS CO., LTD, priority 2017, published 2020).
Where two headings read alike, the source gives them in different places.

Legend:
Alternaria kikuchiana = experiment: In vitro fungicidal activity, growth rate method (Pear black spot); format: cell-based
Mycosphaerella musicola = experiment: In vitro fungicidal activity, growth rate method (Banana leaf spot disease); format: cell-based
[1] = tested on: Alternaria alternata (Fr.) Keissl; experiment: In vitro fungicidal activity, growth rate method (Apple altermaria leaf spot); format: cell-based
[2] = tested on: Fusarium oxysporum f. sp cucumerinum; experiment: In vitro fungicidal activity, growth rate method (Cucumber fusarium wilt); format: cell-based; parameters: key: “—” means the activity is not obvious
[3] = tested on: Sinoe ampelina (de Bary) Shear; experiment: In vitro fungicidal activity, growth rate method (Grape anthracnose); format: cell-based; parameters: key: “—” means the activity is not obvious
Altemaria solani = experiment: In vitro fungicidal activity, growth rate method (Tomato early blight); format: cell-based
Phytophthora = format: cell-based; conditions: Potato late blight
Fusarium moniliforme = experiment: In vitro fungicidal activity, growth rate method (Rice bakanae disease); format: cell-based; parameters: key: “—” means the activity is not obvious
[4] = In vitro fungicidal activity, growth rate method (Colletotrichum capsici); format: cell-based, Acanthopteris fungi; conditions: plant disease Colletotrichum capsici
Pyricularia grisea = format: cell-based; conditions: Rice blast
[5] = format: cell-based, Acinomycete spiculata; conditions: Cucumber anthrax
[6] = tested on: Helminthosporium carposaprum; experiment: In vitro fungicidal activity, growth rate method (Corn spot); format: cell-based
Erysiphe = experiment: In vitro fungicidal activity, growth rate method (Strawberry powdery mildew); format: cell-based
Botrytis cinerea [7] = experiment: In vitro fungicidal activity, growth rate method (Strawberry grey mold); format: cell-based; parameters: key: “—” means the activity is not obvious
Botrytis cinerea [8] = experiment: In vitro fungicidal activity, growth rate method (Cucumber gray mold); format: cell-based; parameters: key: “—” means the activity is not obvious
Botryosphaeria = experiment: In vitro fungicidal activity, growth rate method (Apple ring spot); format: cell-based; parameters: key: “—” means the activity is not obvious
Rhizoctonia solani = experiment: In vitro fungicidal activity, growth rate method (Rice sheath blight); format: cell-based
Sclerotinia sclerotiorum [9] = experiment: In vitro fungicidal activity, growth rate method (Chili sclerotium); format: cell-based
Cercospora arachidicola = experiment: In vitro fungicidal activity, growth rate method (Peanut brown spot); format: cell-based; parameters: key: “—” means the activity is not obvious
Sclerotinia sclerotiorum [10] = experiment: In vitro fungicidal activity, growth rate method (Cucumber sclerotinia rot); format: cell-based
[11] = tested on: Sphaerotheca fuliginea (Schlecht) Poll.; experiment: In vitro fungicidal activity, growth rate method (Cucumber powdery mildew); format: cell-based

## CC1COC(Cn2cnnc2)(c2ccc(Oc3ccc(Cl)cc3)cc2Cl)O1 (stereo not drawn) [Formula I, 4-((-(2-chloro-4-(4-chlorophenoxy)phenyl)-4-methyl-1,3-dioxapentan-2-yl)methyl)-4H-1,2,4-triazole]
Alternaria kikuchiana; 1 μg/mL
  Fungicidal activity (inhibition ratio %): 29.98%
Alternaria kikuchiana; 5 μg/mL
  Fungicidal activity (inhibition ratio %): 35.76%
Alternaria kikuchiana; 10 μg/mL
  Fungicidal activity (inhibition ratio %): 46.61%
Alternaria kikuchiana; 15 μg/mL
  Fungicidal activity (inhibition ratio %): 59.78%
Alternaria kikuchiana; 20 μg/mL
  Fungicidal activity (inhibition ratio %): 67.44%
Mycosphaerella musicola; 1 μg/mL
  Fungicidal activity (inhibition ratio %): 25.26%
Mycosphaerella musicola; 5 μg/mL
  Fungicidal activity (inhibition ratio %): 31.30%
Mycosphaerella musicola; 10 μg/mL
  Fungicidal activity (inhibition ratio %): 43.35%
Mycosphaerella musicola; 15 μg/mL
  Fungicidal activity (inhibition ratio %): 52.11%
Mycosphaerella musicola; 20 μg/mL
  Fungicidal activity (inhibition ratio %): 66.76%
[1]; 1 μg/mL
  Fungicidal activity (inhibition ratio %): 26.94%
[1]; 5 μg/mL
  Fungicidal activity (inhibition ratio %): 34.48%
[1]; 10 μg/mL
  Fungicidal activity (inhibition ratio %): 52.31%
[1]; 15 μg/mL
  Fungicidal activity (inhibition ratio %): 66.71%
[1]; 20 μg/mL
  Fungicidal activity (inhibition ratio %): 74.65%
[2]; 1 μg/mL
  Fungicidal activity (inhibition ratio %): —
[2]; 5 μg/mL
  Fungicidal activity (inhibition ratio %): —
[2]; 10 μg/mL
  Fungicidal activity (inhibition ratio %): 18.32%
[2]; 15 μg/mL
  Fungicidal activity (inhibition ratio %): 31.77%
[2]; 20 μg/mL
  Fungicidal activity (inhibition ratio %): 48.18%
[3]; 1 μg/mL
  Fungicidal activity (inhibition ratio %): —
[3]; 5 μg/mL
  Fungicidal activity (inhibition ratio %): 25.12%
[3]; 10 μg/mL
  Fungicidal activity (inhibition ratio %): 42.04%
[3]; 15 μg/mL
  Fungicidal activity (inhibition ratio %): 52.93%
[3]; 20 μg/mL
  Fungicidal activity (inhibition ratio %): 65.18%
Altemaria solani; 1 μg/mL
  Fungicidal activity (inhibition ratio %): 13.20%
Altemaria solani; 5 μg/mL
  Fungicidal activity (inhibition ratio %): 52.88%
Altemaria solani; 10 μg/mL
  Fungicidal activity (inhibition ratio %): 67.29%
Altemaria solani; 15 μg/mL
  Fungicidal activity (inhibition ratio %): 77.88%
Altemaria solani; 20 μg/mL
  Fungicidal activity (inhibition ratio %): 85.86%
Phytophthora; 1 μg/mL
  Fungicidal activity (inhibition ratio %): 27.03%
Phytophthora; 5 μg/mL
  Fungicidal activity (inhibition ratio %): 31.96%
Phytophthora; 10 μg/mL
  Fungicidal activity (inhibition ratio %): 43.44%
Phytophthora; 15 μg/mL
  Fungicidal activity (inhibition ratio %): 65.08%
Phytophthora; 20 μg/mL
  Fungicidal activity (inhibition ratio %): 73.63%
Fusarium moniliforme; 1 μg/mL
  Fungicidal activity (inhibition ratio %): —
Fusarium moniliforme; 5 μg/mL
  Fungicidal activity (inhibition ratio %): 22.26%
Fusarium moniliforme; 10 μg/mL
  Fungicidal activity (inhibition ratio %): 36.71%
Fusarium moniliforme; 15 μg/mL
  Fungicidal activity (inhibition ratio %): 45.62%
Fusarium moniliforme; 20 μg/mL
  Fungicidal activity (inhibition ratio %): 61.79%
[4]; 1 μg/mL
  Fungicidal activity (inhibition ratio %): 28.70%
[4]; 5 μg/mL
  Fungicidal activity (inhibition ratio %): 47.29%
[4]; 10 μg/mL
  Fungicidal activity (inhibition ratio %): 53.59%
[4]; 15 μg/mL
  Fungicidal activity (inhibition ratio %): 68.32%
[4]; 20 μg/mL
  Fungicidal activity (inhibition ratio %): 78.96%
Pyricularia grisea; 1 μg/mL
  Fungicidal activity (inhibition ratio %): 11.94%
Pyricularia grisea; 5 μg/mL
  Fungicidal activity (inhibition ratio %): 25.37%
Pyricularia grisea; 10 μg/mL
  Fungicidal activity (inhibition ratio %): 44.73%
Pyricularia grisea; 15 μg/mL
  Fungicidal activity (inhibition ratio %): 58.23%
Pyricularia grisea; 20 μg/mL
  Fungicidal activity (inhibition ratio %): 67.59%
[5]; 1 μg/mL
  Fungicidal activity (inhibition ratio %): 37.85%
[5]; 5 μg/mL
  Fungicidal activity (inhibition ratio %): 41.18%
[5]; 10 μg/mL
  Fungicidal activity (inhibition ratio %): 53.51%
[5]; 15 μg/mL
  Fungicidal activity (inhibition ratio %): 58.17%
[5]; 20 μg/mL
  Fungicidal activity (inhibition ratio %): 65.73%
[6]; 1 μg/mL
  Fungicidal activity (inhibition ratio %): 8.92%
[6]; 5 μg/mL
  Fungicidal activity (inhibition ratio %): 22.44%
[6]; 10 μg/mL
  Fungicidal activity (inhibition ratio %): 33.45%
[6]; 15 μg/mL
  Fungicidal activity (inhibition ratio %): 44.46%
[6]; 20 μg/mL
  Fungicidal activity (inhibition ratio %): 53.22%
Erysiphe; 1 μg/mL
  Fungicidal activity (inhibition ratio %): 33.24%
Erysiphe; 5 μg/mL
  Fungicidal activity (inhibition ratio %): 54.62%
Erysiphe; 10 μg/mL
  Fungicidal activity (inhibition ratio %): 67.26%
Erysiphe; 15 μg/mL
  Fungicidal activity (inhibition ratio %): 76.09%
Erysiphe; 20 μg/mL
  Fungicidal activity (inhibition ratio %): 79.02%
Botrytis cinerea [7]; 1 μg/mL
  Fungicidal activity (inhibition ratio %): —
Botrytis cinerea [7]; 5 μg/mL
  Fungicidal activity (inhibition ratio %): —
Botrytis cinerea [7]; 10 μg/mL
  Fungicidal activity (inhibition ratio %): 7.12%
Botrytis cinerea [7]; 15 μg/mL
  Fungicidal activity (inhibition ratio %): 13.46%
Botrytis cinerea [7]; 20 μg/mL
  Fungicidal activity (inhibition ratio %): 29.22%
Botrytis cinerea [8]; 1 μg/mL
  Fungicidal activity (inhibition ratio %): —
Botrytis cinerea [8]; 5 μg/mL
  Fungicidal activity (inhibition ratio %): —
Botrytis cinerea [8]; 10 μg/mL
  Fungicidal activity (inhibition ratio %): 5.10%
Botrytis cinerea [8]; 15 μg/mL
  Fungicidal activity (inhibition ratio %): 9.98%
Botrytis cinerea [8]; 20 μg/mL
  Fungicidal activity (inhibition ratio %): 21.26%
Botryosphaeria; 1 μg/mL
  Fungicidal activity (inhibition ratio %): —
Botryosphaeria; 5 μg/mL
  Fungicidal activity (inhibition ratio %): 41.28%
Botryosphaeria; 10 μg/mL
  Fungicidal activity (inhibition ratio %): 53.56%
Botryosphaeria; 15 μg/mL
  Fungicidal activity (inhibition ratio %): 68.76%
Botryosphaeria; 20 μg/mL
  Fungicidal activity (inhibition ratio %): 73.46%
Rhizoctonia solani; 1 μg/mL
  Fungicidal activity (inhibition ratio %): 37.80%
Rhizoctonia solani; 5 μg/mL
  Fungicidal activity (inhibition ratio %): 52.79%
Rhizoctonia solani; 10 μg/mL
  Fungicidal activity (inhibition ratio %): 68.48%
Rhizoctonia solani; 15 μg/mL
  Fungicidal activity (inhibition ratio %): 72.82%
Rhizoctonia solani; 20 μg/mL
  Fungicidal activity (inhibition ratio %): 82.56%
Sclerotinia sclerotiorum [9]; 1 μg/mL
  Fungicidal activity (inhibition ratio %): 12.81%
Sclerotinia sclerotiorum [9]; 5 μg/mL
  Fungicidal activity (inhibition ratio %): 17.96%
Sclerotinia sclerotiorum [9]; 10 μg/mL
  Fungicidal activity (inhibition ratio %): 25.35%
Sclerotinia sclerotiorum [9]; 15 μg/mL
  Fungicidal activity (inhibition ratio %): 39.34%
Sclerotinia sclerotiorum [9]; 20 μg/mL
  Fungicidal activity (inhibition ratio %): 55.18%
Cercospora arachidicola; 1 μg/mL
  Fungicidal activity (inhibition ratio %): —
Cercospora arachidicola; 5 μg/mL
  Fungicidal activity (inhibition ratio %): 19.71%
Cercospora arachidicola; 10 μg/mL
  Fungicidal activity (inhibition ratio %): 31.25%
Cercospora arachidicola; 15 μg/mL
  Fungicidal activity (inhibition ratio %): 39.48%
Cercospora arachidicola; 20 μg/mL
  Fungicidal activity (inhibition ratio %): 56.68%
Sclerotinia sclerotiorum [10]; 1 μg/mL
  Fungicidal activity (inhibition ratio %): 12.55%
Sclerotinia sclerotiorum [10]; 5 μg/mL
  Fungicidal activity (inhibition ratio %): 34.23%
Sclerotinia sclerotiorum [10]; 10 μg/mL
  Fungicidal activity (inhibition ratio %): 51.21%
Sclerotinia sclerotiorum [10]; 15 μg/mL
  Fungicidal activity (inhibition ratio %): 64.29%
Sclerotinia sclerotiorum [10]; 20 μg/mL
  Fungicidal activity (inhibition ratio %): 71.84%
[11]; 1 μg/mL
  Fungicidal activity (inhibition ratio %): 38.70%
[11]; 5 μg/mL
  Fungicidal activity (inhibition ratio %): 57.29%
[11]; 10 μg/mL
  Fungicidal activity (inhibition ratio %): 63.59%
[11]; 15 μg/mL
  Fungicidal activity (inhibition ratio %): 78.32%
[11]; 20 μg/mL
  Fungicidal activity (inhibition ratio %): 88.96%
